Tested on: 242566-281-R-J2-PDC complex spheroid viability
Test: Anticancer human tumor 242566-281-R-J2-PDC patient-derived pancreatic carcinoma cell line growth inhibition [CLK]
Conditions: for IC50: curve of first compound; for viability, T/C: stronger effect = lower value; active = viability on the fitted dose curve at most 10% of control; inactive = the rest
Method in brief: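 Multi-cell-type spheroids combined patient-derived tumor cells with HUVEC endothelial cells and human mesenchymal stem cells. Paired agents were dosed in half-log steps down from about clinical Cmax, or from 10 microM where Cmax was unknown.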

[1] = second compound 0.0316 µM, first compound 0.0316 µM
[2] = second compound 0.0316 µM, first compound 0.1 µM
[3] = second compound 0.0316 µM, first compound 0.316 µM
[4] = second compound 0.0316 µM, first compound 1 µM
[5] = second compound 0.0316 µM, first compound 3.16 µM
[6] = second compound 0.0316 µM, first compound 10 µM
[7] = second compound 0.1 µM, first compound 0.0316 µM
[8] = second compound 0.1 µM, first compound 0.1 µM
[9] = second compound 0.1 µM, first compound 0.316 µM
[10] = second compound 0.1 µM, first compound 1 µM
[11] = second compound 0.1 µM, first compound 3.16 µM
[12] = second compound 0.1 µM, first compound 10 µM
[13] = second compound 0.316 µM, first compound 0.0316 µM
[14] = second compound 0.316 µM, first compound 0.1 µM
[15] = second compound 0.316 µM, first compound 0.316 µM
[16] = second compound 0.316 µM, first compound 1 µM
[17] = second compound 0.316 µM, first compound 3.16 µM
[18] = second compound 0.316 µM, first compound 10 µM
[19] = second compound 1 µM, first compound 0.0316 µM
[20] = second compound 1 µM, first compound 0.1 µM
[21] = second compound 1 µM, first compound 0.316 µM
[22] = second compound 1 µM, first compound 1 µM
[23] = second compound 1 µM, first compound 3.16 µM
[24] = second compound 1 µM, first compound 10 µM
[25] = second compound 3.16 µM, first compound 0.0316 µM
[26] = second compound 3.16 µM, first compound 0.1 µM
[27] = second compound 3.16 µM, first compound 0.316 µM
[28] = second compound 3.16 µM, first compound 1 µM
[29] = second compound 3.16 µM, first compound 3.16 µM
[30] = second compound 3.16 µM, first compound 10 µM
[31] = second compound 10 µM, first compound 0.0316 µM
[32] = second compound 10 µM, first compound 0.1 µM
[33] = second compound 10 µM, first compound 0.316 µM
[34] = second compound 10 µM, first compound 1 µM
[35] = second compound 10 µM, first compound 3.16 µM
[36] = second compound 10 µM, first compound 10 µM
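Note: spheroids exposed to compounds for 7 days before readout.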
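Throughout, for viability, T/C: 100% = DMSO vehicle control wells.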

COc1cccc2c1C(=O)c1c(O)c3c(c(O)c1C2=O)CC(O)(C(=O)CO)CC3OC1CC(N)C(O)C(C)O1 (stereo unspecified) + CN1CCN(c2cc(C(=O)Nc3cc4cc(-c5cnn(C)c5)ccc4cn3)ccn2)CC1
< 31.6 nM: IC50 (second compound 0.316 µM) | IC50 (second compound 1 µM) | IC50 (second compound 3.16 µM) | IC50 (second compound 10 µM)
active: viability, T/C [3] 8.7% | viability, T/C [4] 4.2% | viability, T/C [5] 1.44% | viability, T/C [6] 2.53% | viability, T/C [9] 5.6% | viability, T/C [10] 2.26% | viability, T/C [11] 1.22% | viability, T/C [12] 1.37% | viability, T/C [14] 7.56% | viability, T/C [15] 1.25% | viability, T/C [16] 1.1% | viability, T/C [17] 1.58% | viability, T/C [18] 1.58% | viability, T/C [19] 4.67% | viability, T/C [20] 4.62% | viability, T/C [21] 2.83% | viability, T/C [22] 3.28% | viability, T/C [23] 2.48% | viability, T/C [24] 2.27% | viability, T/C [25] 6.53% | viability, T/C [26] 5.78% | viability, T/C [27] 5.19% | viability, T/C [28] 3.29% | viability, T/C [29] 2.58% | viability, T/C [30] 1.42% | viability, T/C [31] 1.13% | viability, T/C [32] 1.22% | viability, T/C [33] 0.74% | viability, T/C [34] 0.66% | viability, T/C [35] 0.57% | viability, T/C [36] 0.17%
50 nM: IC50 (second compound 0.1 µM)
inactive: viability, T/C [1] 67% | viability, T/C [2] 31.7% | viability, T/C [7] 66.5% | viability, T/C [8] 25.1% | viability, T/C [13] 26.1%
55 nM: IC50 (second compound 0.0316 µM)

COC1C=CCC(C)C(C)S(=O)(=O)NC(=O)c2ccc3c(c2)N(CC2CCC21)CC1(CCCc2cc(Cl)ccc21)CO3 (stereo unspecified) + CN1CCN(c2cc(C(=O)Nc3cc4cc(-c5cnn(C)c5)ccc4cn3)ccn2)CC1
inactive: viability, T/C [1] 93% | viability, T/C [2] 119% | viability, T/C [3] 101% | viability, T/C [4] 81.6% | viability, T/C [5] 78.9% | viability, T/C [6] 20.3% | viability, T/C [7] 93.2% | viability, T/C [8] 94.1% | viability, T/C [9] 87.8% | viability, T/C [10] 66.6% | viability, T/C [11] 56.6% | viability, T/C [12] 16.5% | viability, T/C [13] 37.5% | viability, T/C [14] 34.1% | viability, T/C [15] 28.7% | viability, T/C [16] 16.1% | viability, T/C [17] 12.8%
3440 nM: IC50 (second compound 0.1 µM)
5300 nM: IC50 (second compound 0.0316 µM)
< 31.6 nM: IC50 (second compound 0.316 µM) | IC50 (second compound 1 µM) | IC50 (second compound 3.16 µM) | IC50 (second compound 10 µM)
active: viability, T/C [18] 3.62% | viability, T/C [19] 4.66% | viability, T/C [20] 4.57% | viability, T/C [21] 3.7% | viability, T/C [22] 4.79% | viability, T/C [23] 3.13% | viability, T/C [24] 2.17% | viability, T/C [25] 7.61% | viability, T/C [26] 7.11% | viability, T/C [27] 6.63% | viability, T/C [28] 7.11% | viability, T/C [29] 6.71% | viability, T/C [30] 4.96% | viability, T/C [31] 1.98% | viability, T/C [32] 1.96% | viability, T/C [33] 1.79% | viability, T/C [34] 1.93% | viability, T/C [35] 1.82% | viability, T/C [36] 0.48%

Nc1ccccc1NC(=O)c1ccc(CNC(=O)OCc2cccnc2)cc1 + CNC(=O)c1ccc(Nc2nc(OC3CCCC3)c3c(-c4ccc5nc(C)oc5c4)c[nH]c3n2)c(OC)c1
7540 nM: IC50 (second compound 0.1 µM)
7700 nM: IC50 (second compound 0.0316 µM)
active: viability, T/C [30] 10.3% | viability, T/C [36] 7.66%
2700 nM: IC50 (second compound 1 µM)
< 31.6 nM: IC50 (second compound 10 µM)
1670 nM: IC50 (second compound 3.16 µM)
inactive: viability, T/C [1] 86.9% | viability, T/C [2] 101% | viability, T/C [3] 101% | viability, T/C [4] 149% | viability, T/C [5] 116% | viability, T/C [6] 32.2% | viability, T/C [7] 81.1% | viability, T/C [8] 104% | viability, T/C [9] 103% | viability, T/C [10] 128% | viability, T/C [11] 109% | viability, T/C [12] 32.1% | viability, T/C [13] 89.6% | viability, T/C [14] 78% | viability, T/C [15] 85.6% | viability, T/C [16] 94.7% | viability, T/C [17] 80.8% | viability, T/C [18] 22.2% | viability, T/C [19] 75.7% | viability, T/C [20] 70.2% | viability, T/C [21] 61.8% | viability, T/C [22] 73.4% | viability, T/C [23] 46.8% | viability, T/C [24] 14% | viability, T/C [25] 60.4% | viability, T/C [26] 52.9% | viability, T/C [27] 52.5% | viability, T/C [28] 63.9% | viability, T/C [29] 40.5% | viability, T/C [31] 50% | viability, T/C [32] 44.4% | viability, T/C [33] 48.6% | viability, T/C [34] 54% | viability, T/C [35] 37.6%
5800 nM: IC50 (second compound 0.316 µM)

Source: PubChem BioAssay AID2060622 (Molecular Pharmacology Branch, DTP, NCI, 2025)
